Patent US20110245334A1, “USE OF RACEMATES OF PINOCEMBRIN IN PREPARING MEDICAMENTS FOR TREATING STROKE” (CSPC Zhonggi Pharmaceutical Technology (Shijiazhuang) Co. …, priority 2008, published 2011)

How the values were obtained:
Format in all cases: in vivo, rat
[1] = tested on: MCAO rats; test: Neurobehavioral examination (Bederson's score), MCAO acute ischemic stroke
Method: Experimental animals: 100 male SD rats with a body weight of 250-280 g were purchased from the Experimental Animals Institute of the Chinese Academy of Medical Science. The rats were grouped randomly as a sham operation group, a model group, pinocembrin groups and a nimodipine group (3 mg/kg).
Experimental model: the model of acute ischemic stroke was made by middle cerebral artery occlusion (MCAO).
The string occlusion method in middle cerebral artery as established by Zea Longa was adopted with proper improvements. 400 mg/kg 10% chloral hydrate was intraperitoneally injected in rats. The external carotid artery (ECA) was separated and ligated at the site where the artery emitted for about 0.8 cm. The end of ECA closing to the heart was clipped by an artery clip. A 2 mm V-shaped incision was made from ECA ligation to ECA bifurcation. A nylon line was inserted gently into […] and then into internal carotid artery (ICA) through the bifurcation of ECA and ICA after loosening the artery clip. The nylon line was pushed into the brain through ICA and inserted in depth of 18.5±0.5 mm when resistance was felt slightly. The nylon line should reach smaller anterior cerebral artery through the beginning of middle cerebral artery (MCA) and ICA could be ligated and sutured. Stump of the nylon line should be reserved with 1 cm outside the skin.
Neurobehavioral examination was performed before the animals were put to death. The rats were raised off the ground for about 1 chi (1 chi=⅓ meter) to observe the state of two forelimbs. The rats were placed on the ground and were pushed by their shoulders to observe differences of their resistance. The rats were placed on the ground and were observed by the way of walking. Four-stage scoring method […] was adopted. The higher the score was, the more serious injury existed in their neurobehavior.
Bederson's scoring standard:
(1) If the rats acted completely normal, score 0 was recorded.
(2) When the rats were raised off the ground, if the rats rotated or retracted forelimb of surgery-contralateral side internally, score 1 was recorded.
(3) When the rats were placed on the ground and squeezed with the hand to examine the resistance of both sides, if the resistance of surgery-contralateral side declined, score 2 was recorded.
(4) When the rats were placed on the ground to observe the way of walking, if the rats circled around the surgery-contralateral side, score 3 was recorded.
(5) If the rats were injured too seriously to move by themselves, score 4 was recorded.

[2] = tested on: MCAO rats; test: Regional cerebral blood flow (LDF), MCAO
Source text: The rats were fixed pronely on the stereotaxic apparatus and subjected to craniotomy. After cleaning for operation visual field, bregma was used as an origin, and a site situated 2 mm behind and 3 mm right to the bregma was selected as a measuring point. The region […] around the site was thinned by a dental drill. In the process, the integrity of dura was maintained and large vessels were avoided. Probe holder was located and fixed.
The rats were supinely fixed on the operating table to carry out MCAO surgery. When a nylon line was inserted in ICA, it was not inserted into intracranial part until LDF value was stable, and blood flow value in 10 min was recorded, and an average value thereof is used as a baseline value of cerebral blood flow. After the MCAO surgery completed, the nylon line was inserted into the intracranial part. When the blood flow value suddenly declined to 20-30% of the baseline value, it was noted that the blood flow in MCA had been blocked. The blood flow value before MCAO in every group was used as a baseline value (100%) of the group. […] LDF value was determined at the same site before the animals was put to death.

[3] = tested on: tMCAO rats; test: Infarct volume (TTC), tMCAO time window study; conditions: 2 hours ischemia and 24 hours reperfusion
Method: 1. In the test, transient middle cerebral artery occlusion (tMCAO) model of rats was adopted. The reperfusion was performed after focal cerebral ischemia for 2 hours so as to inspect therapeutic time window of pinocembrin after focal cerebral ischemia. The rats were administered by pinocembrin racemate (1 mg/kg, 5 mg/kg, intravenous injection) after reperfusion 1 hour, 4 hours and 6 hours (i.e., ischemia 3 hour, 6 hours and 8 hours). (R)-pinocembrin and (S)-pinocembrin (1 mg/kg, 5 mg/kg, intravenous injection) were administered after reperfusion 1 hour and 4 hours (i.e., ischemia 3 hour and 6 hours). The therapeutic time windows of these drugs in focal cerebral ischemia were assessed by studying their effects to neurological symptom scores, infarct sizes and brain water contents during 24 hours after tMCAO.
2.4 Experimental Grouping and Administration • Sham operation group (intravenous injection of normal saline after 3 hours of ischemia); • Model group (intravenous injection of 50 mg/kg hydroxypropyl β-cyclodextrin after 3 hours of ischemia); • Nimodipine group (1 mg/kg, administered after 3 hours of ischemia); • Pinocembrin racemate group (1 mg/kg, 5 mg/kg, administered after 3, 6 and 8 hours of ischemia); • (R)-pinocembrin group (1 mg/kg, 5 mg/kg, administered after 3 and 6 hours of ischemia); • (S)-pinocembrin group (1 mg/kg, 5 mg/kg, administered after 3 and 6 hours of ischemia).
First administration was performed by intravenous injection, and intraperitoneal injection was carried out once 12 hours later with a dose 1.5 times of that for intravenous injection.
After neurobehavioral scoring, the rats were put to death by decollation and their brain tissues were taken out quickly and put into a refrigerator of −20° C. 10 min later, the brain tissues were moved to an environment of room temperature. After the olfactory bulb, cerebellar and lower brain stem were resected, the brain tissue was cut into six continuous coronal slices with an interval of 2 mm. Then the brain slices were quickly put into 5 ml solution containing 2% TTC and incubated at a constant temperature of 37° C. and in a condition of darkness for 30 min. During the time, the brain slices were tipped every 5 min. […] Every group of brain slices were put in order and photographed. The photographs were processed by an image analysis system and the infarct areas in each slice were calculated. The infarct volume of each slice was calculated via multiplying the infarct area by thickness of slice (2 mm), and the infarct volume was the sum of infarct volumes of all slices. The infarct volume percentage was expressed as: sick-side infarct volume/total sick-side brain volume.

`O=C1CC(c2ccccc2)Oc2cc(O)cc(O)c21` (racemic) [Pinocembrin racemate, pinocembrin racemate] was tested, and the “Bederson's score” value ([1]; 3 mg/kg) was 2.4 ± 0.7, the “Bederson's score” value ([1]; 10 mg/kg) was 1.8 ± 0.6 and the “Bederson's score” value ([1]; 30 mg/kg) was 1.5 ± 0.3. For the same molecule, the “regional cerebral blood flow (rCBF)” value ([2]; time point 10 min, 3 mg/kg) was 99.91 ± 7.27 % of baseline value, the “regional cerebral blood flow (rCBF)” value ([2]; time point 10 min, 10 mg/kg) was 99.91 ± 7.27 % of baseline value and the “regional cerebral blood flow (rCBF)” value ([2]; time point 10 min, 30 mg/kg) was 99.91 ± 7.27 % of baseline value. The “regional cerebral blood flow (rCBF)” value ([2]; time point 20 min, 3 mg/kg) was 32.03 ± 6.09 % of baseline value, the “regional cerebral blood flow (rCBF)” value ([2]; time point 20 min, 10 mg/kg) was 31.45 ± 5.6 % of baseline value and the “regional cerebral blood flow (rCBF)” value ([2]; time point 20 min, 30 mg/kg) was 37.98 ± 6.87 % of baseline value. The “regional cerebral blood flow (rCBF)” value ([2]; time point 30 min, 3 mg/kg) was 40.76±6.58 % of baseline value, the “regional cerebral blood flow (rCBF)” value ([2]; time point 30 min, 10 mg/kg) was 50.09±7.09 % of baseline value and the “regional cerebral blood flow (rCBF)” value ([2]; time point 30 min, 30 mg/kg) was 53.28±8.03 % of baseline value. The “regional cerebral blood flow (rCBF)” value ([2]; time point 40 min, 3 mg/kg) was 41.59 ± 6.35 % of baseline value, the “regional cerebral blood flow (rCBF)” value ([2]; time point 40 min, 10 mg/kg) was 47.72 ± 6.67 % of baseline value and the “regional cerebral blood flow (rCBF)” value ([2]; time point 40 min, 30 mg/kg) was 54.92 ± 8.58 % of baseline value. For the same molecule, the “regional cerebral blood flow (rCBF)” value ([2]; time point 50 min, 3 mg/kg) was 42.81 ± 5.25 % of baseline value, the “regional cerebral blood flow (rCBF)” value ([2]; time point 50 min, 10 mg/kg) was 49.98 ± 7.1 % of baseline value and the “regional cerebral blood flow (rCBF)” value ([2]; time point 50 min, 30 mg/kg) was 55.01 ± 6.25 % of baseline value. The “regional cerebral blood flow (rCBF)” value ([2]; time point 60 min, 3 mg/kg) was 40.8 ± 7.09 % of baseline value, the “regional cerebral blood flow (rCBF)” value ([2]; time point 60 min, 10 mg/kg) was 48.99 ± 8.14 % of baseline value and the “regional cerebral blood flow (rCBF)” value ([2]; time point 60 min, 30 mg/kg) was 57.95 ± 6.09 % of baseline value. The “regional cerebral blood flow (rCBF)” value ([2]; time point 70 min, 3 mg/kg) was 41.69 ± 8.67 % of baseline value, the “regional cerebral blood flow (rCBF)” value ([2]; time point 70 min, 10 mg/kg) was 47.01 ± 8.09 % of baseline value and the “regional cerebral blood flow (rCBF)” value ([2]; time point 70 min, 30 mg/kg) was 53.75 ± 7.09 % of baseline value. For the same molecule, the “regional cerebral blood flow (rCBF)” value ([2]; time point 80 min, 3 mg/kg) was 40.75 ± 7.1 % of baseline value, the “regional cerebral blood flow (rCBF)” value ([2]; time point 80 min, 10 mg/kg) was 46.07 ± 9.08 % of baseline value and the “regional cerebral blood flow (rCBF)” value ([2]; time point 80 min, 30 mg/kg) was 54.99 ± 6.67 % of baseline value. The “regional cerebral blood flow (rCBF)” value ([2]; time point 90 min, 3 mg/kg) was 40.99 ± 8.14 % of baseline value, the “regional cerebral blood flow (rCBF)” value ([2]; time point 90 min, 10 mg/kg) was 51.85 ± 8.03 % of baseline value and the “regional cerebral blood flow (rCBF)” value ([2]; time point 90 min, 30 mg/kg) was 55.16 ± 7.1 % of baseline value. For the same molecule, the “regional cerebral blood flow (rCBF)” value ([2]; time point 100 min, 3 mg/kg) was 41.16 ± 6.25 % of baseline value, the “regional cerebral blood flow (rCBF)” value ([2]; time point 100 min, 10 mg/kg) was 47.12 ± 8.58 % of baseline value and the “regional cerebral blood flow (rCBF)” value ([2]; time point 100 min, 30 mg/kg) was 56.59 ± 8.14 % of baseline value. For the same molecule, the “regional cerebral blood flow (rCBF)” value ([2]; time point 110 min, 3 mg/kg) was 46.59 ± 7.09 % of baseline value, the “regional cerebral blood flow (rCBF)” value ([2]; time point 110 min, 10 mg/kg) was 46.89 ± 6.25 % of baseline value and the “regional cerebral blood flow (rCBF)” value ([2]; time point 110 min, 30 mg/kg) was 57.8 ± 7.27 % of baseline value. For the same molecule, the “regional cerebral blood flow (rCBF)” value ([2]; time point 120 min, 3 mg/kg) was 45.8 ± 5.67 % of baseline value, the “regional cerebral blood flow (rCBF)” value ([2]; time point 120 min, 10 mg/kg) was 51.8 ± 6.09 % of baseline value and the “regional cerebral blood flow (rCBF)” value ([2]; time point 120 min, 30 mg/kg) was 64.09 ± 6.09 % of baseline value. For the same molecule, the “regional cerebral blood flow (rCBF)” value ([2]; time point 130 min, 3 mg/kg) was 46.99 ± 6.1 % of baseline value, the “regional cerebral blood flow (rCBF)” value ([2]; time point 130 min, 10 mg/kg) was 56.59 ± 9.08 % of baseline value and the “regional cerebral blood flow (rCBF)” value ([2]; time point 130 min, 30 mg/kg) was 61.72 ± 6.58 % of baseline value. For the same molecule, the “regional cerebral blood flow (rCBF)” value ([2]; time point 140 min, 3 mg/kg) was 48.01 ± 7.14 % of baseline value, the “regional cerebral blood flow (rCBF)” value ([2]; time point 140 min, 10 mg/kg) was 57.8 ± 8.03 % of baseline value and the “regional cerebral blood flow (rCBF)” value ([2]; time point 140 min, 30 mg/kg) was 64.98 ± 6.35 % of baseline value. The “regional cerebral blood flow (rCBF)” value ([2]; time point 150 min, 3 mg/kg) was 44.07 ± 7.09 % of baseline value, the “regional cerebral blood flow (rCBF)” value ([2]; time point 150 min, 10 mg/kg) was 56.99 ± 8.58 % of baseline value and the “regional cerebral blood flow (rCBF)” value ([2]; time point 150 min, 30 mg/kg) was 63.99 ± 5.25 % of baseline value. The “regional cerebral blood flow (rCBF)” value ([2]; time point 160 min, 3 mg/kg) was 47.85 ± 6.81 % of baseline value, the “regional cerebral blood flow (rCBF)” value ([2]; time point 160 min, 10 mg/kg) was 58.01 ± 7.89 % of baseline value and the “regional cerebral blood flow (rCBF)” value ([2]; time point 160 min, 30 mg/kg) was 57.01 ± 7.09 % of baseline value. The “regional cerebral blood flow (rCBF)” value ([2]; time point 170 min, 3 mg/kg) was 49.12 ± 6.08 % of baseline value, the “regional cerebral blood flow (rCBF)” value ([2]; time point 170 min, 10 mg/kg) was 54.07 ± 6.81 % of baseline value and the “regional cerebral blood flow (rCBF)” value ([2]; time point 170 min, 30 mg/kg) was 65.58 ± 8.67 % of baseline value. For the same molecule, the “regional cerebral blood flow (rCBF)” value ([2]; time point 180 min, 3 mg/kg) was 49.89 ± 7.58 % of baseline value, the “regional cerebral blood flow (rCBF)” value ([2]; time point 180 min, 10 mg/kg) was 55.9 ± 6.08 % of baseline value and the “regional cerebral blood flow (rCBF)” value ([2]; time point 180 min, 30 mg/kg) was 62.96 ± 6.81 % of baseline value. The “Infarct percentage (%)” value ([3]; 1 mg/kg, 3 h) was 16.59 ± 7.98 %, the “Infarct percentage (%)” value ([3]; 1 mg/kg, 6 h) was 23.01 ± 11.00% and the “Infarct percentage (%)” value ([3]; 1 mg/kg, 8 h) was 27.16 ± 13.69%. For the same molecule, the “Infarct percentage (%)” value ([3]; 5 mg/kg, 3 h) was 13.64 ± 6.32 %, the “Infarct percentage (%)” value ([3]; 5 mg/kg, 6 h) was 15.03 ± 4.07 % and the “Infarct percentage (%)” value ([3]; 5 mg/kg, 8 h) was 28.32 ± 18.65%.
